Assay results taken from patent US20030022243A1, “Protein aggregation assays and uses thereof” (priority 2001, published 2003).
One block for each compound: values may come before it.

Experiments:
Format in all cases: biochemical
[1] = molecular target: Zinc-deficient SOD-1 (Homo sapiens, UniProt P00441); assay: MCO-induced aggregation of zinc-deficient SOD-1, light scattering; settings: 37° C.
Experimental: Apo-SOD-1 was incubated in the presence of a 1.1-fold molar excess of CuCl2 in 17 mM sodium acetate buffer, pH 3.8, for 24 hours at 40° C.
Zinc-deficient SOD-1 was prepared, MCO-treated, and used to test various compounds and conditions for their effect on SOD-1 aggregation. Zinc-deficient SOD-1 aggregation mixtures were incubated with either 2 mM EDTA, 10 mM mannitol, or 10 mM DMPO as probes for the reactive oxygen species. Anaerobic conditions were achieved by degassing all solutions and oxidizing under vacuum (37° C.) in a vacuum hydrolysis tube (Pierce). Aggregates were detected using light scattering measurements made with a Photon Technology International QM-1 fluorescence spectrophotometer. Excitation and emission wavelengths were set to 350 nm (bandpass=4 nm).

[2] = molecular target: T1, SOD-1, from human erythrocytes (Homo sapiens, UniProt P00441); assay: MCO (ascorbate/Cu)-induced SOD-1 aggregation, right angle light scattering
T1 construct: SOD-1 was purchased from Sigma (purified from erythrocytes) and dissolved in the appropriate buffer; purchased Sigma-Aldrich Fine Chemicals (St. Louis, Mo., USA); host or cells: human erythrocytes
T1 sequence (P00441 2-154 limits assumed): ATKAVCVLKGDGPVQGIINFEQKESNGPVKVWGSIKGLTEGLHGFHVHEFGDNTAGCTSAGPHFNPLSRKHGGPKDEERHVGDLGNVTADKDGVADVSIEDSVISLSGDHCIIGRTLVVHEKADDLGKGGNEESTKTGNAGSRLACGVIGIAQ
Experimental: The effect of pH, copper ions, and ascorbic acid on the induction of SOD-1 aggregation was examined as follows. […] Right angle light scattering was measured at room temperature using a Photon Technology International QM-1 fluorescence spectrophotometer. Both the excitation and emission wavelengths were set to 350 nm and a 1 nm bandpass. A cuvette with an excitation and emission path lengths of 2 mm and 10 mm, respectively was used for the measurements.
In addition, right angle light scattering was measured using a DynaPro99 Molecular Sizing Instrument with attached MicroSampler-MSXTC/12 (Protein Solutions, Inc., Charlottesville, Va.). A 12 μl-DynaPro quartz cuvette with a path length of 1.5 mm was used for all experiments. In the measurement, the SOD-1 sample solution was illuminated by a 60 mW, 825 nm solid-state laser, and the intensity of light scattered at a 90° angle was measured directly as the solution photon count rate in units of kcounts/sec. The averaged count rate was automatically calculated after all acquisitions of the measurements.

[3] = molecular target: apo-SOD-1 (Homo sapiens, UniProt P00441); assay: Native state stabilization assay (thermal aggregation of apo-SOD-1, RP-HPLC of soluble SOD-1); settings: apo-SOD-1 incubated at 60° C. with exogenous metal
Sequence of apo-SOD-1 (P00441 2-154 limits assumed): as above
Experimental: Apo-SOD-1 was prepared from holo-SOD-1 as reported (Crow et al., J. Neurochem., 69:1936, 1997). Holo-SOD-1 was first extensively dialyzed against 10 mM sodium acetate buffer containing 1 mM EDTA, pH 3.8 for 24-72 hours, then dialyzed against 10 mM sodium acetate buffer containing 100 mM NaCl, pH 3.8, and finally dialyzed against the desired buffer.
For FIG. 17, apo-SOD-1 (100 μl) prepared as described above at a concentration of 30 μM in 10 mM sodium acetate buffer, pH 5.0, was incubated for 24 hours at either 4°, 37°, or 60° C. in sealed polypropylene tubes. […] RP-HPLC was carried out on a Zorbax SB300 C8 column (3.0×10 cm, 3.5 μm particle size) using a linear 4% B per min AB gradient at a flow rate of 1.0 ml/min, where A was 0.1% aqueous TFA and B was 0.1% TFA in acetonitrile. Detection was based on UV absorbance at 215 nm. In contrast, the sample incubated at 60° C. contained essentially no soluble SOD-1 in the supernatant as measured by the same method of analysis.
An example of the use of the native state stabilization assay to test agents for inhibition of aggregation can be found in FIG. 18. Apo-SOD-1 samples were incubated under various conditions and analyzed by RP-HPLC to quantitate amounts of soluble SOD-1 remaining. Apo-SOD-1 incubated at 4° C. […] (positive aggregation control; chromatogram a). […]

[4] = 10 mM free radical scavenger in the oxidation reaction

Sequence of Zinc-deficient SOD-1 (P00441 2-154 limits assumed): as above

inhibition of MCO-induced aggregation (light scattering) [1, 4]: did not inhibit aggregation
SMILES: OC[C@@H](O)[C@@H](O)[C@H](O)[C@H](O)CO [mannitol]

inhibition of MCO-induced aggregation (light scattering) [1, 4]: did not inhibit aggregation
SMILES: CC1(C)CCC=[N+]1[O-] [DMPO]

inhibition of MCO-induced aggregation (light scattering) ([1]; 2 mM EDTA in the oxidation reaction): inhibited aggregation
SMILES: O=C(O)CN(CCN(CC(=O)O)CC(=O)O)CC(=O)O [EDTA]

induction of SOD-1 aggregates detectable by right angle light scattering ([2]; 2 mM ascorbic acid, 10 mM phosphate buffer pH 6, 37° C., 38 hours): resulted in the formation of aggregates
SMILES: O=C1O[C@H]([C@@H](O)CO)C(O)=C1O [ascorbic acid]

Second part, the compound before the results:

SMILES: [Cu] [copper]
soluble SOD-1 remaining versus apo-SOD-1 without exogenous metal (RP-HPLC) [3]: significantly more soluble SOD-1

SMILES: [Cl][Cu][Cl] [CuCl2]
induction of SOD-1 aggregates ([2]; 25 μM CuCl2 in 10 mM sodium phosphate, no ascorbic acid, 38 hours): no aggregates of SOD-1 were induced
relative amount of aggregation induced by ascorbic acid ([2]; addition of 25 μM CuCl2 to 2 mM ascorbic acid): significantly enhanced

SMILES: [Zn] [zinc]
soluble SOD-1 remaining versus apo-SOD-1 without exogenous metal (RP-HPLC) [3]: significantly more soluble SOD-1
